“Also recorded” adds a separate entry of the source.
Assays:
actin cytoskeleton = tested on: actin cytoskeleton; parameters: method as in PMID 12589050; settings: cited from earlier work
Shp1 = target: T1, Shp1 (Homo sapiens, UniProt P29350); assay: Isothermal titration calorimetry, Shp1 WT; type: binding; settings: Ins4P 50 µM (Fig. S2)
T1 construct: the C-terminal truncated form of human Shp1 cDNA (His-Shp1; amino acids 1–529); made in house; host or cells: E. coli BL21(DE3)
T1 sequence (P29350 1-529 isoform P29350-3): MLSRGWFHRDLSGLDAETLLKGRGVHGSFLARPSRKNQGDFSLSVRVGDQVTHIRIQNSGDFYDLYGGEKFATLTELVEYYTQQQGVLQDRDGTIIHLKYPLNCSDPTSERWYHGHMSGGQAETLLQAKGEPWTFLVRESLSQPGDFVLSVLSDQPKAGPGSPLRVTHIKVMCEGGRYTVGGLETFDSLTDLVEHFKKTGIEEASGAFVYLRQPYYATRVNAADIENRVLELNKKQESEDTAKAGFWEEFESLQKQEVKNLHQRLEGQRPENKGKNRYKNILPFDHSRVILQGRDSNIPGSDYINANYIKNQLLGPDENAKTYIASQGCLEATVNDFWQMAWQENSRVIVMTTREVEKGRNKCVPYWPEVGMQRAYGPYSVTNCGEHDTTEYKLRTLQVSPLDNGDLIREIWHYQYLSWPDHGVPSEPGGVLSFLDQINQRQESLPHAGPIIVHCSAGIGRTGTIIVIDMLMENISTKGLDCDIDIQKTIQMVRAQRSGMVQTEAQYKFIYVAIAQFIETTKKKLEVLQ
Experimental: ITC measurements were performed by using a Nano-ITC III (TA instruments, New Castle, DE, USA) with a reaction cell volume of 1 ml kept at 25 °C. A protein solution of 10 μM was titrated into the calorimetric cell with a solution of 50–100 μM of the ligand GroPIns4P (Ins4P) in the syringe. A sequence of 16 injections of 15 μL volume was programmed with a stirring speed of 250 rpm at 500 s intervals. Protein samples were prepared with protein solutions at 25 °C in 20 mM Tris buffer pH 7.4 with 50 mM NaCl and 1 mM TCEP. To minimise the differences in buffer composition and pH between cell and syringe, both ligand and protein solutions were prepared with the same batch of buffer. The heat of dilution of the GroPIns4P into the buffer solution was measured in a separate experiment and appropriate corrections were made. The heat evolved after each ligand injection was obtained from the integral of the calorimetric signal. Raw data were integrated, corrected for non-specific heats and normalized for concentration. The equilibrium dissociation constant (KD), binding enthalpy (ΔbH) and binding stoichiometry (n) were obtained by nonlinear regression of the experimental data using a model of independent binding sites, by means of the NanoAnalyze software. Experiments were performed in duplicate.

NIH3T3 cells [1] = assay: Wound-healing assay; type: cell-based; settings: for effect on GroPIns4P-stimulated wound closure: 50 μM GroPIns4P
Experimental: To perform the wound-healing assay, NIH3T3 cells were seeded in 6-well tissue culture plates to a final density of 3 × 10^5 cells/well and maintained at 37 °C and 5% CO2 for 24 h until confluence before being starved overnight in DMEM containing 1% bovine serum. The cell monolayer was wounded by scratching with a 10 μL standard sterile pipette tip. The scratched monolayer was rinsed twice with DMEM containing 1% bovine serum to remove cell debris and incubated with or without 50 μM GroPIns4P. […] In detail, the input image was processed by applying a Sobel edge detector [26], obtaining a gradient image. A threshold process was then performed on the gradient image to obtain the foreground corresponding to the wound area. Particularly, all of the pixels of the gradient image with values less than the threshold θ were assumed to be pixels of the foreground (experimentally, θ is set to 4). Finally, procedures based on morphological operations were used to remove small regions and to fill holes of the wound area to complete detection and analysis.

NIH3T3 cells [2] = assay: Immunofluorescence analysis for membrane ruffling; type: cell-based; settings: for effect of pre-treatment on peripheral ruffles in response to GroPIns4P: with 50 μM GroPIns4P for 5 min
Experimental: NIH3T3 and Raw 264.7 cells were cultured in DMEM supplemented with 2 mM L-glutamine, 50 U/mL penicillin, […] streptomycin, and 10% CS or heat-inactivated FBS (30 min at 55 °C), respectively. NIH3T3 cells were transfected with different plasmids using the Lipofectamine LTX/plus reagent according to the manufacturer’s instructions. For immunofluorescence experiments, NIH3T3 cells were seeded onto glass coverslips in 24-well plates at a concentration suitable for 70% confluence without transfection or 50% confluence in the case of Lipofectamine-based cell transfection. In the latter, approximately 24 h after seeding, NIH3T3 cells were transiently transfected with different plasmids with the Lipofectamine LTX/plus reagent following the manufacturer’s instructions. Before treatments, NIH3T3 cells were serum-starved in DMEM with 2 mM glutamine, 50 U/mL penicillin and streptomycin for 16–20 h. The cells were then treated with different stimuli and/or inhibitors, as indicated in the text and/or Figure legends. Addition of exogenous GroPIns4P was at 50 μM (unless otherwise indicated), a concentration eliciting an intracellular concentration of about 1.5 μM, as calculated from the Nernst equation (with T = 300 K, z = − 3, and Veq = − 30 mV, an average value for cultured, non-excitable cells).
For ruffle assessment after treatments, immunofluorescence labelling and morphological analysis of the cells were performed as previously described in a double-blind fashion. In brief, the assessment was based on a null score (zero) for the absence of the feature, followed by a score of one or two according to the level of response of each individual cell, where one indicate that ruffling was confined to one area of the cell (< 25% of the cell circumference), and two indicate that two or more discrete areas of the cell contained ruffles. The cell phenotypes were quantified by counting 150 cells in each sample. The data were then expressed as percentage scores (±SD) for each treatment response compared with its respective control. Scoring of the control cells was performed in the same way to evaluate the presence of the features of interest in untreated cells.

## O=P(O)(O)OC1[C@@H](O)[C@@H](O)C(O)[C@H](O)[C@H]1O (stereo partly shown) [Ins4P, Inositol 4-phosphate, reference compound]
Actin cytoskeleton
  effect on actin cytoskeleton organisation: no effect
Shp1
  binding to Shp1 by ITC: did not indicate any specific binding; also recorded: no binding was resolved

## O=S(=O)(O)c1ccc2cc(N=Nc3cc(S(=O)(=O)O)c4cccnc4c3O)ccc2c1 [NSC-87877]
NIH3T3 cells [1]; 100 μM, EGF 10 ng/ml
  reduction of EGF-induced cell migration: ~100%
NIH3T3 cells [1]; pre-treatment 100 μM
  effect on GroPIns4P-stimulated wound closure: completely abrogated
NIH3T3 cells [2]
  effect of pre-treatment on peripheral ruffles in response to GroPIns4P: strongly impair

## O=C1C=CC(=O)C(c2cc(Cl)ccc2Cl)=C1 [TPI-1]
NIH3T3 cells [1]; 25 μM, EGF 10 ng/ml
  reduction of EGF-induced cell migration: 50%
NIH3T3 cells [1]; pre-treatment 25 μM
  effect on GroPIns4P-stimulated wound closure: completely abrogated
NIH3T3 cells [2]
  effect of pre-treatment on peripheral ruffles in response to GroPIns4P: strongly impair

## CCCCC/C=C\C/C=C\C/C=C\C/C=C\CCCC(=O)O [arachidonic acid]
NIH3T3 cells [1]; 10–50 μM
  effect on EGF-induced cell motility: did not affect
NIH3T3 cells [1]; EGF 10 ng/ml, cPLA2α inhibitor, arachidonic acid
  effect when combined with the PLA2 inhibitor in EGF-stimulated cells: minor inhibitory effect

## EGF: Epidermal growth factor
NIH3T3 cells [1]; 10 ng/ml EGF
  cell migration: significant increase

## PDGF
NIH3T3 cells [2]; 10 ng/ml PDGF
  effect of Shp1-C455S overexpression on PDGF-induced ruffles: not affected
NIH3T3 cells [2]; 10 ng/ml PDGF for 5 min, positive control
  increase in ruffles versus the control: 3.5–4 fold
